Experimental data reported in patent US20150337013A1, “NOVEL ANTIBACTERIAL AGENTS FOR THE TREATMENT OF GRAM POSITIVE INFECTIONS” (priority 2008, published 2015).
Read-outs that look alike come from different tables or passages of the source.

Assays:
[1] = test system: Enterococcus faecalis EFS.312, Daptomycin resistant mutant (EFA); assay type: cell-based; conditions: MHBc with 50 mg/L calcium, 18-20 hours at 37° C.
Procedure, shortened: (§1)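 CLSI M7-A7 broth microdilution, modified: MHB + 50 mg/L Ca, 5×10^5 bacteria/well, 2-fold dilutions, DMSO ≤1%, 18-20 h, 37° C, 200 rpm. Growth = visible turbidity or OD600 ≥0.1; MIC = lowest conc. without visible turbidity, μg/mL.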

[2] = test system: Enterococcus faecium EFM.14 (ATCC 6569); assay type: cell-based
Procedure, shortened: as §1

[3] = test system: Staphylococcus aureus SAU.278, Daptomycin resistant mutant (D10); assay type: cell-based; conditions: MHBc with 50 mg/L calcium, 18-20 hours at 37° C.
Procedure, shortened: as §1

[4] = test system: Enterococcus faecium EFM.384, Daptomycin resistant mutant (14-A); assay type: cell-based; conditions: MHBc with 50 mg/L calcium, 18-20 hours at 37° C.
Procedure, shortened: as §1

[5] = test system: Staphylococcus aureus SAU.399 (ATCC 43300), Methicillin and Oxacillin Resistant; assay type: cell-based
Procedure, shortened: as §1

[6] = test system: Enterococcus faecalis EFS.201 (ATCC 49452); assay type: cell-based
Procedure, shortened: as §1

[7] = test system: Staphylococcus aureus SAU.42 (ATCC 29213); assay type: cell-based
Procedure, shortened: as §1

[8] = MHBc with 50 mg/L calcium, 18-20 hours at 37° C.

Row | Structure (SMILES) | C. diff MIC90 (Clostridium difficile) | Efs312 MIC [1] | Efm14 MIC ([2]; ATCC 6569) | Sa278 MIC [3] | Efm384 MIC [4] | Sa399 MIC ([5]; ATCC 43300) | Efs201 MIC ([6]; ATCC 49452) | Sa42 MIC ([7]; ATCC 29213) | Efm14 MIC [2, 8] | Sa399 MIC [5, 8] | Efs201 MIC [6, 8] | Sa42 MIC [7, 8]
1 | C[C@H](CC(=O)O)[C@@H]1NC(=O)[C@@H](CO)NC(=O)CNC(=O)[C@H](CC(=O)O)NC(=O)[C@@H](C)NC(=O)[C@H](CC(=O)O)NC(=O)[C@H](CCCN)NC(=O)CNC(=O)[C@@H](NC(=O)[C@H](CC(=O)O)NC(=O)[C@@H](CC(N)=O)NC(=O)[C@H](Cc2c[nH]c3ccccc23)NC(=O)C2CCC(c3ccc(Cl)cc3)CC2)[C@@H](C)OC(=O)[C@H](CC(=O)c2ccccc2N)NC1=O (stereo partly drawn) [Compound 67] | 4 µg/mL | >32 µg/mL | 8 µg/mL | 4 µg/mL | >32 µg/mL | 4 µg/mL | 4 µg/mL | 0.5 µg/mL |  |  |  | 
2 | CC(C)CCCCCCCCCCC(=O)N[C@@H](Cc1c[nH]c2ccccc12)C(=O)N[C@H](CC(N)=O)C(=O)N[C@@H](CC(=O)O)C(=O)N[C@@H]1C(=O)NCC(=O)N[C@@H](CCCN)C(=O)N[C@@H](CC(=O)O)C(=O)N[C@H](C)C(=O)N[C@@H](CC(=O)O)C(=O)NCC(=O)N[C@H](CO)C(=O)N[C@@H]([C@H](C)CC(=O)O)C(=O)N[C@@H](CC(=O)c2ccccc2N)C(=O)O[C@@H]1C [Compound 11] | 1 µg/mL | 16 µg/mL | 1 µg/mL | 0.5 µg/mL | 4 µg/mL | 0.25 µg/mL | 1 µg/mL | 0.125 µg/mL |  |  |  | 
3 | CCc1ccc(CCC(=O)N[C@@H](Cc2c[nH]c3ccccc23)C(=O)N[C@H](CC(N)=O)C(=O)N[C@@H](CC(=O)O)C(=O)N[C@@H]2C(=O)NCC(=O)N[C@@H](CCCN)C(=O)N[C@@H](CC(=O)O)C(=O)N[C@H](C)C(=O)N[C@@H](CC(=O)O)C(=O)NCC(=O)N[C@H](CO)C(=O)N[C@@H]([C@H](C)CC(=O)O)C(=O)N[C@@H](CC(=O)c3ccccc3N)C(=O)O[C@@H]2C)cc1 [Compound 29] | 16 µg/mL | >32 µg/mL | >32 µg/mL | >32 µg/mL | >32 µg/mL | 8 µg/mL | >32 µg/mL | 8 µg/mL |  |  |  | 
4 | CCCCCCCOc1ccc(-c2ccc(C(=O)N[C@@H](Cc3c[nH]c4ccccc34)C(=O)N[C@H](CC(N)=O)C(=O)N[C@@H](CC(=O)O)C(=O)N[C@@H]3C(=O)NCC(=O)N[C@@H](CCCN)C(=O)N[C@@H](CC(=O)O)C(=O)N[C@H](C)C(=O)N[C@@H](CC(=O)O)C(=O)NCC(=O)N[C@H](CO)C(=O)N[C@@H]([C@H](C)CC(=O)O)C(=O)N[C@@H](CC(=O)c4ccccc4N)C(=O)O[C@@H]3C)cc2)cc1 [Compound 63] | 2 µg/mL | 4 µg/mL |  | 0.25 µg/mL | 1 µg/mL |  |  |  | 1 µg/mL | 0.25 µg/mL | 0.5 µg/mL | 0.25 µg/mL
5 | C[C@H](CC(=O)O)[C@@H]1NC(=O)[C@@H](CO)NC(=O)CNC(=O)[C@H](CC(=O)O)NC(=O)[C@@H](C)NC(=O)[C@H](CC(=O)O)NC(=O)[C@H](CCCN)NC(=O)CNC(=O)[C@@H](NC(=O)[C@H](CC(=O)O)NC(=O)[C@@H](CC(N)=O)NC(=O)[C@H](Cc2c[nH]c3ccccc23)NC(=O)c2cc(-c3ccc(Cl)cc3)cs2)[C@@H](C)OC(=O)[C@H](CC(=O)c2ccccc2N)NC1=O [Compound 70] | 16 µg/mL | >32 µg/mL | >32 µg/mL | >32 µg/mL | >32 µg/mL | 8 µg/mL | >32 µg/mL | 8 µg/mL |  |  |  | 
6 | CC(C)Cc1ccc(C(C)C(=O)N[C@@H](Cc2c[nH]c3ccccc23)C(=O)N[C@H](CC(N)=O)C(=O)N[C@@H](CC(=O)O)C(=O)N[C@@H]2C(=O)NCC(=O)N[C@@H](CCCN)C(=O)N[C@@H](CC(=O)O)C(=O)N[C@H](C)C(=O)N[C@@H](CC(=O)O)C(=O)NCC(=O)N[C@H](CO)C(=O)N[C@@H]([C@H](C)CC(=O)O)C(=O)N[C@@H](CC(=O)c3ccccc3N)C(=O)O[C@@H]2C)cc1 (single isomer, unassigned) [45 isomer II] | 8 µg/mL | >32 µg/mL | 32 µg/mL | >32 µg/mL | >32 µg/mL | 4 µg/mL | 32 µg/mL | 4 µg/mL |  |  |  | 
7 | CCCCCCCCCCCCC(=O)N[C@@H](Cc1c[nH]c2ccccc12)C(=O)N[C@H](CC(N)=O)C(=O)N[C@@H](CC(=O)O)C(=O)N[C@@H]1C(=O)NCC(=O)N[C@@H](CCCN)C(=O)N[C@@H](CC(=O)O)C(=O)N[C@H](C)C(=O)N[C@@H](CC(=O)O)C(=O)NCC(=O)N[C@H](CO)C(=O)N[C@@H]([C@H](C)CC(=O)O)C(=O)N[C@@H](CC(=O)c2ccccc2N)C(=O)O[C@@H]1C [Compound 5] | 8 µg/mL | 8 µg/mL | 0.5 µg/mL | 2 µg/mL | 8 µg/mL | 0.5 µg/mL | 0.5 µg/mL | 0.5 µg/mL |  |  |  | 
8 | CC(C)Cc1ccc(C(C)C(=O)N[C@@H](Cc2c[nH]c3ccccc23)C(=O)N[C@H](CC(N)=O)C(=O)N[C@@H](CC(=O)O)C(=O)N[C@@H]2C(=O)NCC(=O)N[C@@H](CCCN)C(=O)N[C@@H](CC(=O)O)C(=O)N[C@H](C)C(=O)N[C@@H](CC(=O)O)C(=O)NCC(=O)N[C@H](CO)C(=O)N[C@@H]([C@H](C)CC(=O)O)C(=O)N[C@@H](CC(=O)c3ccccc3N)C(=O)O[C@@H]2C)cc1 (single isomer, unassigned) [45 isomer I] | 32 µg/mL | >32 µg/mL | >32 µg/mL | >32 µg/mL | >32 µg/mL | 8 µg/mL | >32 µg/mL | 8 µg/mL |  |  |  | 
9 | CCCCCCCCCCC(=O)N[C@@H](Cc1c[nH]c2ccccc12)C(=O)N[C@H](CC(N)=O)C(=O)N[C@@H](CC(=O)O)C(=O)N[C@@H]1C(=O)NCC(=O)N[C@@H](CCCN)C(=O)N[C@@H](CC(=O)O)C(=O)N[C@H](C)C(=O)N[C@@H](CC(=O)O)C(=O)NCC(=O)N[C@H](CO)C(=O)N[C@@H]([C@H](C)CC(=O)O)C(=O)N[C@@H](CC(=O)c2ccccc2N)C(=O)O[C@@H]1C [Compound 2] | 4 µg/mL | 32 µg/mL | 2 µg/mL | 8 µg/mL | >32 µg/mL | 0.5 µg/mL | 2 µg/mL | 2 µg/mL |  |  |  | 
10 | C[C@H](CC(=O)O)[C@@H]1NC(=O)[C@@H](CO)NC(=O)CNC(=O)[C@H](CC(=O)O)NC(=O)[C@@H](C)NC(=O)[C@H](CC(=O)O)NC(=O)[C@H](CCCN)NC(=O)CNC(=O)[C@@H](NC(=O)[C@H](CC(=O)O)NC(=O)[C@@H](CC(N)=O)NC(=O)[C@H](Cc2c[nH]c3ccccc23)NC(=O)c2ccc(-c3ccc(-c4ccccc4)cc3)cc2)[C@@H](C)OC(=O)[C@H](CC(=O)c2ccccc2N)NC1=O [Compound 69] | 2 µg/mL | 32 µg/mL |  | 0.125 µg/mL | 4 µg/mL |  |  |  | 0.5 µg/mL | 0.125 µg/mL | 0.5 µg/mL | 0.125 µg/mL
11 | CCCCCCCCC1CC1C(=O)N[C@@H](Cc1c[nH]c2ccccc12)C(=O)N[C@H](CC(N)=O)C(=O)N[C@@H](CC(=O)O)C(=O)N[C@@H]1C(=O)NCC(=O)N[C@@H](CCCN)C(=O)N[C@@H](CC(=O)O)C(=O)N[C@H](C)C(=O)N[C@@H](CC(=O)O)C(=O)NCC(=O)N[C@H](CO)C(=O)N[C@@H]([C@H](C)CC(=O)O)C(=O)N[C@@H](CC(=O)c2ccccc2N)C(=O)O[C@@H]1C (single isomer, unassigned) [27 isomer II] | 1 µg/mL | 32 µg/mL | 1 µg/mL | 2 µg/mL | 4 µg/mL | 0.5 µg/mL | 0.5 µg/mL | 1 µg/mL |  |  |  | 
12 | CCCCCCCc1ccc(NC(=O)N[C@@H](Cc2c[nH]c3ccccc23)C(=O)N[C@H](CC(N)=O)C(=O)N[C@@H](CC(=O)O)C(=O)N[C@@H]2C(=O)NCC(=O)N[C@@H](CCCN)C(=O)N[C@@H](CC(=O)O)C(=O)N[C@H](C)C(=O)N[C@@H](CC(=O)O)C(=O)NCC(=O)N[C@H](CO)C(=O)N[C@@H]([C@H](C)CC(=O)O)C(=O)N[C@@H](CC(=O)c3ccccc3N)C(=O)O[C@@H]2C)cc1 [Compound 51] | 0.5 µg/mL | 8 µg/mL | 0.5 µg/mL | 1 µg/mL | 4 µg/mL | 0.125 µg/mL | 0.25 µg/mL | 0.125 µg/mL |  |  |  | 
